Experimental data taken from the kinase profiling compilation of Christmann-Franck et al. (2016).

Legend:
Test in all cases: radiometric filter-binding kinase assay, Kinase HotSpot
Details in all cases: compound 0.5 µM; ATP 10 µM
[1] = target: CAMK4 (human) (UniProt Q16566)
[2] = target: ROCK1 (human) (UniProt Q13464)
[3] = target: GRK4 (human) (UniProt P32298)
[4] = target: CSNK1G3 (human) (UniProt Q9Y6M4)
[5] = target: DAPK3 (human) (UniProt O43293)
[6] = target: MAPKAPK5 (human) (UniProt Q8IW41)
[7] = target: PHKG2 (human) (UniProt P15735)
[8] = target: MAPKAPK3 (human) (UniProt Q16644)
[9] = target: PAK2 (human) (UniProt Q13177)
[10] = target: MARK4 (human) (UniProt Q96L34)
[11] = target: FRK (human) (UniProt P42685)
[12] = target: PRKG2 (human) (UniProt Q13237)
[13] = target: ABL1 (human) (UniProt P00519)
[14] = target: MELK (human) (UniProt Q14680)
[15] = target: PRKCB1 (human) (UniProt P05771)
[16] = target: SRPK2 (human) (UniProt P78362)
[17] = target: CAMKK1 (human) (UniProt Q8N5S9)
[18] = target: GRK5 (human) (UniProt P34947)
[19] = target: CHEK2 (human) (UniProt O96017)
[20] = target: MST1R (human) (UniProt Q04912)
[21] = target: CDK1 CCNA2 (human) (UniProt P06493+P20248)
[22] = target: FLT1 (human) (UniProt P17948)
[23] = target: HIPK2 (human) (UniProt Q9H2X6)
[24] = target: NEK6 (human) (UniProt Q9HC98)
[25] = target: EPHA3 (human) (UniProt P29320)
[26] = tested on: SGK1 (human), O00141 [S422D]
[27] = target: MAP2K2 (human) (UniProt P36507)
[28] = target: IKBKE (human) (UniProt Q14164)
[29] = target: CDK5 CDK5R1 p25 (human) (UniProt Q00535+Q15078)
[30] = target: FLT3 (human) (UniProt P36888)
[31] = target: FGFR3 (human) (UniProt P22607)
[32] = target: AURKA (human) (UniProt O14965)
[33] = target: DYRK1A (human) (UniProt Q13627)
[34] = target: PRKD3 (human) (UniProt O94806)
[35] = target: PRKCG (human) (UniProt P05129)
[36] = target: PRKCH (human) (UniProt P24723)
[37] = target: EPHA1 (human) (UniProt P21709)
[38] = target: SRPK1 (human) (UniProt Q96SB4)
[39] = target: GSK3A (human) (UniProt P49840)
[40] = target: NEK7 (human) (UniProt Q8TDX7)
[41] = target: PBK (human) (UniProt Q96KB5)
[42] = target: TSSK1B (human) (UniProt Q9BXA7)
TSSK1B (human), sequence (Q9BXA7 whole entry, looked up): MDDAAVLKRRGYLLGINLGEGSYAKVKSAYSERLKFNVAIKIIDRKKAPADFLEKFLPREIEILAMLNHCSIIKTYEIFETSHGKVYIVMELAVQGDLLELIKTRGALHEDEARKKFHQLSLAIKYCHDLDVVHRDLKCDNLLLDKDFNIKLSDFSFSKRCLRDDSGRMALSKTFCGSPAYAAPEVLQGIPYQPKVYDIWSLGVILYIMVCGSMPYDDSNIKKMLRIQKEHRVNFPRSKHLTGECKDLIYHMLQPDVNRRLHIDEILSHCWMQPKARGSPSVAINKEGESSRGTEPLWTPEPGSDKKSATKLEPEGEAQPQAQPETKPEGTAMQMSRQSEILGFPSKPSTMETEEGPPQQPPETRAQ

SRPK2 (human), sequence (P78362 whole entry, looked up): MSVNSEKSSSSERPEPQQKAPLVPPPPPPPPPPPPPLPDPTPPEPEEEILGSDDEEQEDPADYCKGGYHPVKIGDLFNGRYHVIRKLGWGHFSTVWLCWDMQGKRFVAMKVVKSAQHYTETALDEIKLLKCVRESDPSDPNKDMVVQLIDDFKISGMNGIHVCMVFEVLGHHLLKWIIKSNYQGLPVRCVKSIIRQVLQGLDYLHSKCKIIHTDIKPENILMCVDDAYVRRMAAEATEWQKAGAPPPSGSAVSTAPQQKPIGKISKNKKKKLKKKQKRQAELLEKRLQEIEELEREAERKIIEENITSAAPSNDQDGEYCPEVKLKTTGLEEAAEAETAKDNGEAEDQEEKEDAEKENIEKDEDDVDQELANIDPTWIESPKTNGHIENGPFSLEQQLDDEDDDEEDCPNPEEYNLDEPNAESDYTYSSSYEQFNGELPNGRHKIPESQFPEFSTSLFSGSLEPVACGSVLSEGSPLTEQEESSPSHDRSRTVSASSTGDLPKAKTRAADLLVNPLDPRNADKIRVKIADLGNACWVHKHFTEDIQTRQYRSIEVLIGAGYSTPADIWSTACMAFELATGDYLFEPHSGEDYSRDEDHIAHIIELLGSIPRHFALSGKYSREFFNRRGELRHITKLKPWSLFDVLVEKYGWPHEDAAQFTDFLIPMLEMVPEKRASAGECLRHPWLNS
CAMKK1 (human), sequence (Q8N5S9 whole entry, looked up): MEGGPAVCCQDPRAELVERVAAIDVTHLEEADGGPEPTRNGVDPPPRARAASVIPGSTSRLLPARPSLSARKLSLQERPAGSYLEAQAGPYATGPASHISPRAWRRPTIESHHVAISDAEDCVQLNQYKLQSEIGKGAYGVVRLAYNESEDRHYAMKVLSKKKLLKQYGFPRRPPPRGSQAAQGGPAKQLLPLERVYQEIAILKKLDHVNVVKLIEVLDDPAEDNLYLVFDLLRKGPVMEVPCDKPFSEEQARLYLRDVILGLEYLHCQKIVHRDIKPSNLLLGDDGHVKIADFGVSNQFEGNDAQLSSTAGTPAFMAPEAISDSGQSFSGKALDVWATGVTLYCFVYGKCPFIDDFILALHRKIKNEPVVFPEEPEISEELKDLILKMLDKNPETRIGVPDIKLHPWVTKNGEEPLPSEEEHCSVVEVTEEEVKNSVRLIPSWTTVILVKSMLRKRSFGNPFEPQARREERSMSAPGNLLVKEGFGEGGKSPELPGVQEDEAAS
CSNK1G3 (human), sequence (Q9Y6M4 whole entry, looked up): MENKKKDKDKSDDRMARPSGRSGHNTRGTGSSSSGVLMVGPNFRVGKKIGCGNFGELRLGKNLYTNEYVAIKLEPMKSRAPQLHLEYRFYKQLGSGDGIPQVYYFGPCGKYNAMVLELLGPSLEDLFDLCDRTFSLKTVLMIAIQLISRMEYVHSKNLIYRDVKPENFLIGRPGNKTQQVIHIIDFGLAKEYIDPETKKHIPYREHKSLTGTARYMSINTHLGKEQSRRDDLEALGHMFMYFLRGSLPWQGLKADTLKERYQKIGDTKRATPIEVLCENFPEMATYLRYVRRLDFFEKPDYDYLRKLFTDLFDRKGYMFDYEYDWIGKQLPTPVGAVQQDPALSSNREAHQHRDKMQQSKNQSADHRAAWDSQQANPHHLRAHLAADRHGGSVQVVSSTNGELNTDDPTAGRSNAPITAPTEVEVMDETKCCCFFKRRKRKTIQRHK
CAMK4 (human), sequence (Q16566 whole entry, looked up): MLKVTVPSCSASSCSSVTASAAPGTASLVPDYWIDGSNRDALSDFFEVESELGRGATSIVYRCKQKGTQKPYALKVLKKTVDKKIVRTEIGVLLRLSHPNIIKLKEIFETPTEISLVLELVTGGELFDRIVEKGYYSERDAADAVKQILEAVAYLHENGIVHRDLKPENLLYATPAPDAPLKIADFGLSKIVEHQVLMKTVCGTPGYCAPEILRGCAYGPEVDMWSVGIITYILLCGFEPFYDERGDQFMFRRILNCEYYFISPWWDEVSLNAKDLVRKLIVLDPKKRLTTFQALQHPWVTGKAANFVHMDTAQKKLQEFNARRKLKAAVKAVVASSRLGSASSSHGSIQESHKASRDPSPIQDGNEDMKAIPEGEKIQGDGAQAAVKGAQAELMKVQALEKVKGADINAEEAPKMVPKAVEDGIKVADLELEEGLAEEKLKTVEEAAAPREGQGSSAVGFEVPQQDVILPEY
ABL1 (human), sequence (P00519 whole entry, looked up): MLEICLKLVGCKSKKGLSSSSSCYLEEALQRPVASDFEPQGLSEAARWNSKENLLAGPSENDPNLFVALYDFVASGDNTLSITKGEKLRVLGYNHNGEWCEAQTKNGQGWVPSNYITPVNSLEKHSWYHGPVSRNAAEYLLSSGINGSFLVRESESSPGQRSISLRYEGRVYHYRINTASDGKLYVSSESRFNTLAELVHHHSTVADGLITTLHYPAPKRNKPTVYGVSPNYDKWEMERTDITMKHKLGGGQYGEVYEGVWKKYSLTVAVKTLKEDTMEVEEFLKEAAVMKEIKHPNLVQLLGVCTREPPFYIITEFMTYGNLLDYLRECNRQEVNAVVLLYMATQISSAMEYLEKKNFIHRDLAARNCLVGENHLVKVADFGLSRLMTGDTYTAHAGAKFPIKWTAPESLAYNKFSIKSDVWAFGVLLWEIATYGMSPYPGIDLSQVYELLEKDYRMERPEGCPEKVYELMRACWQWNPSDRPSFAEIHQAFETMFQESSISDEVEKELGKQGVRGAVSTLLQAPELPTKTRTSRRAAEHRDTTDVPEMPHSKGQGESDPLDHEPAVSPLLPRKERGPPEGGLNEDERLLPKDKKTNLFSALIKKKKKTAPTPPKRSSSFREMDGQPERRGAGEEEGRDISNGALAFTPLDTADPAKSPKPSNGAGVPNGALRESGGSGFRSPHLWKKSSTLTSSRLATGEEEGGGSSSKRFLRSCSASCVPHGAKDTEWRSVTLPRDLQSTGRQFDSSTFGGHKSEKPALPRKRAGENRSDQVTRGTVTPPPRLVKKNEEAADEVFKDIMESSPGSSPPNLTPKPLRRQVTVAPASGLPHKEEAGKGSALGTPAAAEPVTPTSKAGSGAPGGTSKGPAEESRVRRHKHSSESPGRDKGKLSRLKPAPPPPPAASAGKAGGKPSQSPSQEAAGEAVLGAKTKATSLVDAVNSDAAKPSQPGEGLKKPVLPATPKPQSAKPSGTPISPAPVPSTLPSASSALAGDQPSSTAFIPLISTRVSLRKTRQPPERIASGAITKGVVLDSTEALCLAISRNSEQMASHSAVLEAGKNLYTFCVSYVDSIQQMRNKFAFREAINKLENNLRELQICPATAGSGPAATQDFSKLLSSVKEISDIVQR
PRKCH (human), sequence (P24723 whole entry, looked up): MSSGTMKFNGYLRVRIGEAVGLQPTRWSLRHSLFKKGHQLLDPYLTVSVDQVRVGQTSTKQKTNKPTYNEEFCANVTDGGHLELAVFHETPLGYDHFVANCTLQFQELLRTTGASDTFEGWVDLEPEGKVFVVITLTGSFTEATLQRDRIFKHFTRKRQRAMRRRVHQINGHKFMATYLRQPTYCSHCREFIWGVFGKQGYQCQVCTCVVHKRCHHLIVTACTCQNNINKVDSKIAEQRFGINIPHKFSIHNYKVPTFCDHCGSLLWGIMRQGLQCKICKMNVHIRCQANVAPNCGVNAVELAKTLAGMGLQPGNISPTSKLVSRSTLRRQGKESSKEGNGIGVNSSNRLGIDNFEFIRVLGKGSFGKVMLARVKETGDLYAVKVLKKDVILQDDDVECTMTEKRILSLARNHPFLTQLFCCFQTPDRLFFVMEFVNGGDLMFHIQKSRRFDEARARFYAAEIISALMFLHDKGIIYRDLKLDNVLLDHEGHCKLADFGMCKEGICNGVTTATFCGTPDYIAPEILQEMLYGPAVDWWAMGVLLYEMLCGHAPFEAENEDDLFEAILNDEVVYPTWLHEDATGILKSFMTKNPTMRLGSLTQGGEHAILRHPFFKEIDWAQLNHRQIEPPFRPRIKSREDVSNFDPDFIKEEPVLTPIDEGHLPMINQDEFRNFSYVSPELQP
NEK6 (human), sequence (Q9HC98 whole entry, looked up): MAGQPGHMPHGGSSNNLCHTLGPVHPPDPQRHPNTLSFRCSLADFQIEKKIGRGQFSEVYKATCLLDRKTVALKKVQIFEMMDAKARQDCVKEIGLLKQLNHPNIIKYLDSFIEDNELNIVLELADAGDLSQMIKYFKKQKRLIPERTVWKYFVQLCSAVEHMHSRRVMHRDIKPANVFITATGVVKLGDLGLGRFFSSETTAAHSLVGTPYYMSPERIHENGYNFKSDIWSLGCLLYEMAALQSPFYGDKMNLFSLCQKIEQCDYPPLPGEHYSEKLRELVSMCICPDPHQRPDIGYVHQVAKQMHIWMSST
PBK (human), sequence (Q96KB5 whole entry, looked up): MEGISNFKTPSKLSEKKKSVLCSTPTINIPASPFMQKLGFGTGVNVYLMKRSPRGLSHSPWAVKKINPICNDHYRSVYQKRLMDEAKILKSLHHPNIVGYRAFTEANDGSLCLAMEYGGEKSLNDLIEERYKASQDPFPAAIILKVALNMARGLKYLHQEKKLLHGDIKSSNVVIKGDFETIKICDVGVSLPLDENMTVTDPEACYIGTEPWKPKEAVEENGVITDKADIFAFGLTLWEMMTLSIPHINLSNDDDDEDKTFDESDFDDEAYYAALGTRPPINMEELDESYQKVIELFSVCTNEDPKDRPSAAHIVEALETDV

In the case of `Cc1cc(Nc2nc(-c3ccccc3)nc3ccccc23)n[nH]1`, the residual activity [1] is reported as 94.1%, the residual activity [2] is reported as 98.8% and the residual activity [3] is reported as 92.1%. For the same compound, the residual activity [4] was 75%, the residual activity [5] was 57.5% and the residual activity [6] was 93.2%. It also gave a residual activity [7] of 86.3%, a residual activity [8] of 81% and a residual activity [9] of 91.8%. It also gave a residual activity [10] of 83.5%, a residual activity [11] of 72.5% and a residual activity [12] of 98.2%. It also gave a residual activity [13] of 75.4%, a residual activity [14] of 69.1% and a residual activity [15] of 99.9%. It also gave a residual activity [16] of 68.8%, a residual activity [17] of 90.7% and a residual activity [18] of 119%. The residual activity [19] was 31.3%, the residual activity [20] was 96.6% and the residual activity [21] was 95%. The residual activity [22] was 78.7%, the residual activity [23] was 101% and the residual activity [24] was 93.9%. It also gave a residual activity [25] of 88.9%, a residual activity [26] of 95.5% and a residual activity [27] of 102%. The residual activity [28] was 67.1%, the residual activity [29] was 98.7% and the residual activity [30] was 10.5%. It also gave a residual activity [31] of 71.7%, a residual activity [32] of 19.8% and a residual activity [33] of 104%. The residual activity [34] was 93.9%, the residual activity [35] was 98.6% and the residual activity [36] was 89.6%. The residual activity [37] was 69.9%, the residual activity [38] was 90.1% and the residual activity [39] was 11.3%. The residual activity [40] was 97.7%, the residual activity [41] was 95.4% and the residual activity [42] was 76.7%.
`CCc1nc(-c2ccc(OC)cc2)[nH]c1-c1ccncc1` was tested, and the residual activity [1] was 97.5%, the residual activity [2] was 105% and the residual activity [3] was 99.3%. For the same compound, the residual activity [4] was 106%, the residual activity [5] was 95.8% and the residual activity [6] was 95.2%. It also gave a residual activity [7] of 111%, a residual activity [8] of 102% and a residual activity [9] of 90.7%. The residual activity [10] was 96.4%, the residual activity [11] was 101% and the residual activity [12] was 91.9%. It also gave a residual activity [13] of 101%, a residual activity [14] of 110% and a residual activity [15] of 104%. The residual activity [16] was 101%, the residual activity [17] was 122% and the residual activity [18] was 107%. It also gave a residual activity [19] of 102%, a residual activity [20] of 101% and a residual activity [21] of 91.8%. For the same compound, the residual activity [22] was 90.2%, the residual activity [23] was 93.6% and the residual activity [24] was 95.3%. It also gave a residual activity [25] of 100%, a residual activity [26] of 104% and a residual activity [27] of 105%. It also gave a residual activity [28] of 99.8%, a residual activity [29] of 95.9% and a residual activity [30] of 91.4%. It also gave a residual activity [31] of 99.8%, a residual activity [32] of 93.7% and a residual activity [33] of 97.7%. It also gave a residual activity [34] of 97.1%, a residual activity [35] of 95.5% and a residual activity [36] of 93%. The residual activity [37] was 116%, the residual activity [38] was 106% and the residual activity [39] was 99.1%. For the same compound, the residual activity [40] was 99.8%, the residual activity [41] was 104% and the residual activity [42] was 106%.
For `CCOc1cc2ncnc(Nc3cccc(Br)c3)c2cc1OCC`, the residual activity [1] was 98.7%, the residual activity [2] was 98.8% and the residual activity [3] was 96.2%. For the same compound, the residual activity [4] was 98.7%, the residual activity [5] was 103% and the residual activity [6] was 71.6%. The residual activity [7] was 101%, the residual activity [8] was 87.4% and the residual activity [9] was 105%. For the same compound, the residual activity [10] was 99.2%, the residual activity [11] was 85.9% and the residual activity [12] was 83.9%. It also gave a residual activity [13] of 64.3%, a residual activity [14] of 88.1% and a residual activity [15] of 100%. It also gave a residual activity [16] of 95.6%, a residual activity [17] of 88.2% and a residual activity [18] of 104%. For the same compound, the residual activity [19] was 92%, the residual activity [20] was 102% and the residual activity [21] was 94.7%. The residual activity [22] was 85%, the residual activity [23] was 96.8% and the residual activity [24] was 106%. It also gave a residual activity [25] of 83.3%, a residual activity [26] of 120% and a residual activity [27] of 95.5%. The residual activity [28] was 98.7%, the residual activity [29] was 89.5% and the residual activity [30] was 29%. It also gave a residual activity [31] of 103%, a residual activity [32] of 110% and a residual activity [33] of 98.7%. It also gave a residual activity [34] of 95.4%, a residual activity [35] of 83% and a residual activity [36] of 94.9%. The residual activity [37] was 84.7%, the residual activity [38] was 102% and the residual activity [39] was 110%. It also gave a residual activity [40] of 98.6%, a residual activity [41] of 102% and a residual activity [42] of 92.9%.
